Measured values taken from patent US11629135B2 (JUBILANT PRODEL LLC, priority 2017, dated 2023).

These compounds were tested against T1, PD-1/PD-L1 interaction (Homo sapiens, UniProt Q9NZQ7) (assay: PD-1/PD-L1 Homogenous Time-Resolved Fluorescence (HTRF) binding assay). Settings: Biochemical PD1/PD-L1 inhibition.
T1 construct: Tag1 or Tag2 (undisclosed kit tag); purchased CisBio 63ADK000CPAPEG
Protocol: PD-L1 Enzyme Assay: Homogenous Time-Resolved Fluorescence (HTRF) Binding Assay
All binding studies were performed using PD-1/PD-L1 Binding Assay Kit from CisBio (Catalog #63ADK000CPAPEG), according to the manufacturer's protocol. The interaction between Tag1-PD-1 and […] was detected by anti-Tag1-Eu^3+ (HTRF donor) and anti-Tag2-XL665 (HTRF acceptor). When the donor and acceptor antibodies were brought to close proximity due to PD-1 and PD-L1 binding, excitation of the donor antibody triggered fluorescent resonance energy transfer (FRET) towards the acceptor antibody, which in turn emitted specifically at 665 nm. This specific signal is positively proportional to PD-1/PD-L1 interaction. The compounds blocking PD-1/PD-L1 interaction will cause a reduction in HTRF signal. The necessary reagents were mixed in the following order: 2 μl compounds (or diluents buffer), 4 μl PD-L1 protein, 4 μl PD-1 protein. After an incubation of 15 minutes, 5 μl of anti-Tag1-Eu^3+ and 5 μl of anti-Tag2-XL665 were added. The plate was sealed and incubated at RT for 1 h. The fluorescence emission was read at two different wavelengths (665 nm and 620 nm) on a BMG PheraStar® multiplate reader. Results were calculated from the 665 nm and 620 nm fluorescence signal and expressed in HTRF ratio=(665 nm/620 nm)×[…].

T1 sequence (Q9NZQ7 19-238 limits assumed): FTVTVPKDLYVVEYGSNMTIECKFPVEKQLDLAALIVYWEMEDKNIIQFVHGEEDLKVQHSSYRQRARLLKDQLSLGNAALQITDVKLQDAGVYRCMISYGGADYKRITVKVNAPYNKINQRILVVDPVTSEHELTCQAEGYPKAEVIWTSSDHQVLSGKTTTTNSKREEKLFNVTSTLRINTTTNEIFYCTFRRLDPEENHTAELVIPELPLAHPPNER

Q: How did the IC50 turn out when COc1nc(OCc2cccc(-c3ccccc3)c2C)ncc1CN1CCC[C@@H]2C[C@@]21C(=O)O (racemic) [Compound 48] was run?
A: > 500 nM

Q: COc1nc(OCc2cccc(-c3ccccc3)c2C)nc(OC)c1CN1CCCC2C[C@]21C(=O)O (single isomer, unassigned) [Compound 4] was tested. Which IC50 did it give?
A: < 100 nM

Q: How did the IC50 turn out when COc1nc(OCc2cccc(-c3ccccc3)c2C)nc(OC)c1CN1CCC[C@@H]2C[C@@]21C(=O)O (single isomer, unassigned) [Compound 5] was run?
A: 100 to 500 nM

Q: CCOc1nc(OCc2cccc(-c3ccccc3)c2C)ncc1CN1C[C@H](O)CC1C(=O)O (stereo in doubt) [Compound 30, (2R,4R)-1-((4-ethoxy-2-((2-methyl-[1,1′-biphenyl]-3-yl)methoxy)pyrimidin-5-yl)methyl)-4-hydroxypyrrolidine-2-carboxylic acid] was tested. Which IC50 did it give?
A: 100 to 500 nM

Q: With COc1nc(OCc2cccc(-c3ccc(F)cc3)c2C)ncc1CNCCNC(C)=O [Compound 1, N-(2-(((2-((4′-fluoro-2-methyl-[1,1′-biphenyl]-3-yl)methoxy)-4-methoxypyrimidin-5-yl)methyl)amino)ethyl)acetamide] as the compound, how does the IC50 read?
A: > 500 nM

Q: For CCOc1nc(OCc2cccc(-c3ccccc3)c2C)ncc1CN(C)CC(=O)O [Compound 2, N-((4-ethoxy-2-((2-methyl-[1,1′-biphenyl]-3-yl)methoxy)pyrimidin-5-yl)methyl)-N-methyl glycine], which IC50 is on record?
A: > 500 nM

Q: COc1nc(OCc2cccc(-c3ccccc3)c2C)nc(OC)c1CNCCNC(C)=O [Compound 3, N-(2-(((4,6-dimethoxy-2-((2-methyl-[1,1′-biphenyl]-3-yl)methoxy)pyrimidin-5-yl)methyl)amino)ethyl)acetamide] was tested. Which IC50 did it give?
A: < 100 nM

Q: How did the IC50 turn out when CCOc1nc(OCc2cccc(-c3ccccc3)c2C)nc(OCC)c1CNCCNC(C)=O [Compound 6, N-(2-(((4,6-diethoxy-2-((2-methyl-[1,1′-biphenyl]-3-yl)methoxy)pyrimidin-5-yl)methyl)amino)ethyl)acetamide] was run?
A: 100 to 500 nM

Q: Which IC50 does the source give for COc1nc(OCc2cccc(-c3ccccc3)c2C)ncc1CN1CCCC[C@H]1C(=O)O [Compound 7, (S)-1-((4-methoxy-2-((2-methyl-[1,1′-biphenyl]-3-yl)methoxy)pyrimidin-5-yl)methyl)piperidine-2-carboxylic acid] here?
A: < 100 nM

Q: Which IC50 does the source give for Cc1c(COc2ncc(CN3CCCC[C@H]3C(=O)O)c(OCc3ccc(F)c(C#N)c3)n2)cccc1-c1ccccc1 [Compound 8, (S)-1-((4-((3-cyano-4-fluorobenzyl)oxy)-2-((2-methyl-[1,1′-biphenyl]-3-yl)methoxy)pyrimidin-5-yl)methyl)piperidine-2-carboxylic acid] here?
A: > 500 nM

Q: For Cc1c(COc2ncc(CN3CCCC[C@H]3C(=O)O)c(OCC(F)(F)F)n2)cccc1-c1ccccc1 [Compound 9, (S)-1-((2-((2-methyl-[1,1′-biphenyl]-3-yl)methoxy)-4-(2,2,2-trifluoroethoxy)pyrimidin-5-yl)methyl)piperidine-2-carboxylic acid], which IC50 is on record?
A: > 500 nM

Q: Which IC50 does the source give for Cc1c(COc2ncc(CN3CCCC[C@H]3C(=O)O)c(OCCCCO)n2)cccc1-c1ccccc1 [Compound 10, (S)-1-((4-(4-hydroxybutoxy)-2-((2-methyl-[1,1′-biphenyl]-3-yl)methoxy)pyrimidin-5-yl)methyl)piperidine-2-carboxylic acid] here?
A: 100 to 500 nM

Q: Which IC50 does the source give for COc1nc(OCc2cccc(-c3ccc4c(c3)OCCO4)c2C)nc(OC)c1CN1C[C@H](O)C[C@H]1C(=O)O [Compound 11, (2S,4R)-1-((2-((3-(2,3-dihydrobenzo[b][1,4]dioxin-6-yl)-2-methylbenzyl)oxy)-4,6-dimethoxypyrimidin-5-yl)methyl)-4-hydroxypyrrolidine-2-carboxylic acid] here?
A: < 100 nM

Q: Which IC50 does the source give for Cc1c(COc2ncc(CN3CCCC[C@H]3C(=O)O)c(OCc3cncc(C#N)c3)n2)cccc1-c1ccccc1 [Compound 12, (S)-1-((4-((5-cyanopyridin-3-yl)methoxy)-2-((2-methyl-[1,1′-biphenyl]-3-yl)methoxy)pyrimidin-5-yl)methyl)piperidine-2-carboxylic acid] here?
A: > 500 nM

Q: For COc1nc(OCc2cccc(-c3cccc(OCCCN4CCC(F)(F)C4)c3C)c2C)ncc1CN1CCCC[C@H]1C(=O)O [Compound 13, (S)-1-((2-((3′-(3-(3,3-difluoropyrrolidin-1-yl)propoxy)-2,2′-dimethyl-[1,1′-biphenyl]-3-yl)methoxy)-4-methoxypyrimidin-5-yl)methyl)piperidine-2-carboxylic acid], which IC50 is on record?
A: 100 to 500 nM

Q: COc1nc(OCc2cccc(-c3ccccc3)c2C)ncc1CNCCNC(C)=O [Compound 14, N-(2-(((4-methoxy-2-((2-methyl-[1,1′-biphenyl]-3-yl)methoxy)pyrimidin-5-yl)methyl)amino)ethyl)acetamide] was tested. Which IC50 did it give?
A: 100 to 500 nM

Q: Which IC50 does the source give for COc1nc(OCc2cccc(-c3ccccc3)c2C)ncc1CN1CCCC[C@@H]1C(=O)O [Compound 15, (R)-1-((4-methoxy-2-((2-methyl-[1,1′-biphenyl]-3-yl)methoxy)pyrimidin-5-yl)methyl)piperidine-2-carboxylic acid] here?
A: 100 to 500 nM

Q: How did the IC50 turn out when COc1nc(OCc2cccc(-c3ccc(F)cc3)c2C)ncc1CN1CCCC[C@H]1C(=O)O [Compound 16, (S)-1-((2-((4′-fluoro-2-methyl-[1,1′-biphenyl]-3-yl)methoxy)-4-methoxypyrimidin-5-yl)methyl)piperidine-2-carboxylic acid] was run?
A: > 500 nM

Q: COc1nc(OCc2cccc(-c3cccc(F)c3)c2C)ncc1CN1CCCC[C@H]1C(=O)O [Compound 17, (S)-1-((2-((3′-fluoro-2-methyl-[1,1′-biphenyl]-3-yl)methoxy)-4-methoxypyrimidin-5-yl)methyl)piperidine-2-carboxylic acid] was tested. Which IC50 did it give?
A: 100 to 500 nM

Q: For COc1nc(OCc2cccc(-c3cccc(F)c3)c2C)ncc1CNCCNC(C)=O [Compound 18, N-(2-(((2-((3′-fluoro-2-methyl-[1,1′-biphenyl]-3-yl)methoxy)-4-methoxypyrimidin-5-yl)methyl)amino)ethyl)acetamide], which IC50 is on record?
A: 100 to 500 nM

Q: How did the IC50 turn out when COc1nc(OCc2cccc(-c3ccccc3F)c2C)ncc1CN1CCCC[C@H]1C(=O)O [Compound 19, (S)-1-((2-((2′-fluoro-2-methyl-[1,1′-biphenyl]-3-yl)methoxy)-4-methoxypyrimidin-5-yl)methyl)piperidine-2-carboxylic acid] was run?
A: 100 to 500 nM

Q: How did the IC50 turn out when COc1nc(OCc2cccc(-c3ccccc3F)c2C)ncc1CNCCNC(C)=O [Compound 20, N-(2-(((2-((2′-fluoro-2-methyl-[1,1′-biphenyl]-3-yl)methoxy)-4-methoxypyrimidin-5-yl)methyl)amino)ethyl)acetamide] was run?
A: > 500 nM

Q: With CCOc1nc(OCc2cccc(-c3ccccc3)c2C)ncc1CNCCNC(C)=O [Compound 21, N-(2-(((4-ethoxy-2-((2-methyl-[1,1′-biphenyl]-3-yl)methoxy)pyrimidin-5-yl)methyl)amino)ethyl)acetamide] as the compound, how does the IC50 read?
A: > 500 nM

Q: For CCOc1nc(OCc2cccc(-c3ccccc3)c2C)ncc1CN1CCCC[C@H]1C(=O)O [Compound 22, (S)-1-((4-ethoxy-2-((2-methyl-[1,1′-biphenyl]-3-yl)methoxy)pyrimidin-5-yl)methyl)piperidine-2-carboxylic acid], which IC50 is on record?
A: 100 to 500 nM

Q: For CCOc1nc(OCc2cccc(-c3ccccc3)c2C)ncc1CNC1(C(=O)O)CC1 [Compound 23, 1-(((4-ethoxy-2-((2-methyl-[1,1′-biphenyl]-3-yl)methoxy)pyrimidin-5-yl)methyl)amino)cyclopropane-1-carboxylic acid], which IC50 is on record?
A: 100 to 500 nM

Q: CCOc1nc(OCc2cccc(-c3ccccc3)c2C)ncc1CNCCC(=O)O [Compound 24] was tested. Which IC50 did it give?
A: > 500 nM

Q: CCOc1nc(OCc2cccc(-c3ccccc3)c2C)ncc1CNC(CO)(CO)CO [Compound 25, 2-(((4-ethoxy-2-((2-methyl-[1,1′-biphenyl]-3-yl)methoxy)pyrimidin-5-yl)methyl)amino)-2-(hydroxymethyl)propane-1,3-diol] was tested. Which IC50 did it give?
A: < 100 nM

Q: CCOc1nc(OCc2cccc(-c3ccccc3)c2C)ncc1CN[C@@H](C)CC(=O)O [Compound 27, (S)-3-(((4-ethoxy-2-((2-methyl-[1,1′-biphenyl]-3-yl)methoxy)pyrimidin-5-yl)methyl)amino)butanoic acid] was tested. Which IC50 did it give?
A: > 500 nM

Q: How did the IC50 turn out when CCOc1nc(OCc2cccc(-c3ccccc3)c2C)ncc1CN[C@H](C)C(=O)O [Compound 28, ((4-ethoxy-2-((2-methyl-[1,1′-biphenyl]-3-yl)methoxy)pyrimidin-5-yl)methyl)-D-alanine] was run?
A: 100 to 500 nM

Q: Which IC50 does the source give for CCOc1nc(OCc2cccc(-c3ccccc3)c2C)ncc1CNC(CC(N)=O)C(=O)O (centres unmarked) [Compound 29, ((4-ethoxy-2-((2-methyl-[1,1′-biphenyl]-3-yl)methoxy)pyrimidin-5-yl)methyl)asparagine] here?
A: 100 to 500 nM

Q: For CCOc1nc(OCc2cccc(-c3ccccc3)c2C)ncc1CN1CCC1C(=O)O (centres unmarked) [Compound 31, 1-((4-ethoxy-2-((2-methyl-[1,1′-biphenyl]-3-yl)methoxy)pyrimidin-5-yl)methyl)azetidine-2-carboxylic acid], which IC50 is on record?
A: 100 to 500 nM

Q: CC(=O)NCCNCc1cnc(OCc2cccc(-c3ccccc3)c2C)nc1OCc1ccccc1 [Compound 32, N-(2-(((4-(benzyloxy)-2-((2-methyl-[1,1′-biphenyl]-3-yl)methoxy)pyrimidin-5-yl)methyl)amino)ethyl)acetamide] was tested. Which IC50 did it give?
A: > 500 nM
